Results taken from patent US11667621B2, “Antiestrogen compounds” (STEVENS INSTITUTE OF TECHNOLOGY, priority 2018, dated 2023).
Positions count from the first letter of the chain named.

Columns and labels:
[1] = molecular target: T1, full length human estrogen receptor a (Homo sapiens, UniProt P03372); assay: Competitive radiometric binding assay (RBA), tritiated estradiol tracer; conditions: relative to estradiol = 100; average SD of 2-3 determinations
T1 construct: purified, full-length human estrogen receptor a from Invitrogen; purchased Invitrogen
T1 sequence (P03372 1-595): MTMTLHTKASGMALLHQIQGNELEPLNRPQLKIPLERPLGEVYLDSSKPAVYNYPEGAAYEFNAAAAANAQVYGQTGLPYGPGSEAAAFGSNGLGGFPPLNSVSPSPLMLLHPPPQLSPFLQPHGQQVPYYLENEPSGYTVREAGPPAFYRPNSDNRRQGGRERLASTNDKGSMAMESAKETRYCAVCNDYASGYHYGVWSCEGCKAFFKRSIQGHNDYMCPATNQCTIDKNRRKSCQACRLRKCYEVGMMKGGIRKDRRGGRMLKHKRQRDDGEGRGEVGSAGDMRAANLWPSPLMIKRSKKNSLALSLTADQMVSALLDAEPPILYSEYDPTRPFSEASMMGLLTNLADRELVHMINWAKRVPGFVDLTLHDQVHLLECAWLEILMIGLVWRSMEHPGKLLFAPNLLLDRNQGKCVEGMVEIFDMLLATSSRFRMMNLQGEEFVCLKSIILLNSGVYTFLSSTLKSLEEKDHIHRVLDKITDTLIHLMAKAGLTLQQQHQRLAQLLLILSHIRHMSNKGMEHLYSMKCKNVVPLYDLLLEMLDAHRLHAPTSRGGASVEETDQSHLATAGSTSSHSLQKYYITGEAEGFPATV
Description: Tritiated estradiol was obtained from Perkin Elmer and purified, full-length human estrogen receptor a from Invitrogen.
Competitive radiometric binding assays (RBA) were performed on 96-well microtiter filter plates (Millipore), using full length human estrogen receptor a, with tritiated estradiol as tracer, as previously described (Carlson K E, Choi I, Gee A, Katzenellenbogen B S, Katzenellenbogen J A. Altered ligand binding properties and enhanced stability of a constitutively active estrogen receptor: evidence that an open pocket conformation is required for ligand interaction. Biochemistry 1997, 36(48), 14897-14905). After incubation on ice for 18-24 h, ERα-bound tracer was absorbed onto hydroxyapatite (BioRad), washed with buffer, and measured by scintillation counting. RBA values are the average SD of 2-3 determinations.

[2] = Cell proliferation assay (WST-1), 6-day exposure; assay type: cell-based; conditions: 144 h, read-out: Antiproliferation IC50
Description: Cell proliferation assay: WST-1 assay (Roche, Basel, Switzerland) was used to quantify cell viability after a 6-day exposure to compounds, as described in Gong et al. Mol. Cell. Endocrinol. 2016, 437, 190-200. Absorbance was measured at 450 nm using a VICTOR X5 PerkinElmer 2030 Multilabel Plate Reader, and cell proliferation values represent signal from compound-treated samples relative to vehicle-treated controls. All assays were performed in triplicate, and the values shown are the average SD of 2-3 independent experiments.

[3] = molecular target: T2, HA-ERα L536R (Homo sapiens, UniProt P03372, L536R); assay: Luciferase assay, overexpressed ER (3×-ERE-TATA-Luciferase reporter); assay type: cell-based; conditions: for inhibition at 1 µM: compound concentration 1 μM, 24 hours
T2 construct: HA; expressed in transfected cells
T2 sequence (P03372 1-595 L536R): T1 sequence (P03372 1-595) with L536R
Description: (§1) Luciferase assays were performed to determine the efficacy of the example compounds at inhibiting ER or its mutants' ability to activate transcription of genes.
(§2) Cells were plated at a density of 0.15×10^6 per well of 24 well plates one day prior to transfection. Cells were transfected with 125 ng (per well) of HA-ERα wild type or mutants, 315 ng (per well) of 3×-ERE-TATA-Luciferase reporter and 50 ng (per well) of pRL-TK Renilla Luciferase plasmid, using Xtremegene (Roche). The cells were treated with the various compounds or Fulvestrant at the indicated doses a day after transfection for 24 hours and luciferase activities were determined using the Dual-Luciferase® Reporter Assay System (Promega) according to manufacturer's instructions. Luciferase bioluminescence measurements were performed with the Veritas™ Microplate Luminometer (Promega). All experiments were conducted in triplicate and the Firefly luciferase activity was normalized with the Renilla luciferase activity of each sample.

[4] = molecular target: T3, HA-ERα wild type (Homo sapiens, UniProt P03372); assay: as above; assay type: cell-based; conditions: for inhibition at 1 µM: compound concentration 1 μM, 24 hours, read-out: Overexpressed ER (% Inhibition) WT
T3 construct: HA; expressed in transfected cells
T3 sequence (P03372 1-595): T1 sequence (P03372 1-595)
Description: as §1, §2

[5] = molecular target: T4, HA-ERα Y537S (Homo sapiens, UniProt P03372, Y537S); assay: as above; assay type: cell-based; conditions: for inhibition at 1 µM: compound concentration 1 μM, 24 hours
T4 construct: HA; expressed in transfected cells
T4 sequence (P03372 1-595 Y537S): T1 sequence (P03372 1-595) with Y537S
Description: as §1, §2

[6] = molecular target: T5, HA-ERα D538G (Homo sapiens, UniProt P03372, D538G); assay: as above; assay type: cell-based; conditions: for inhibition at 1 µM: compound concentration 1 μM, 24 hours
T5 construct: HA; expressed in transfected cells
T5 sequence (P03372 1-595 D538G): T1 sequence (P03372 1-595) with D538G
Description: as §1, §2

[7] = tested on: MCF7; assay: Cell proliferation assay (Resazurin); assay type: cell-based; conditions: Homo sapiens
Description: (§3) Cell proliferation assays were performed to determine the efficacy of the compounds at inhibiting ER or its mutants' ability at promoting cell proliferation.
(§4) Cells were plated at 1500 cells/well into 96-well culture plates in regular media, treated with the indicated doses of the compounds or Fulvestrant the next day and incubated in a humidified incubator with 5% CO2 at 37° C. They were assayed for cell proliferation at Day 0, 3, 5 and 7 using the Resazurin reagent (R&D Systems), which upon addition, culture plates were incubated at 37° C. incubator for 4 hours before their fluorescence were read at 560 nm excitation and 590 nm emission wavelengths with a microtiter plate reader (Molecular Devices).

[8] = tested on: Y537S cl. 24; assay: Cell proliferation assay (Resazurin); assay type: cell-based
Description: as §3, §4

[9] = tested on: D538G cl. 65; assay: Cell proliferation assay (Resazurin); assay type: cell-based
Description: as §3, §4

Compound | RBA (estradiol = 100) [1] | inhibition at 1 µM [3] [%] | inhibition at 1 µM [4] [%] | inhibition at 1 µM [5] [%] | inhibition at 1 µM [6] [%] | IC50 [2] [nM] | other results
CC(C)C[C@H](NC(=O)OC(C)(C)C)C(=O)NCCCCOc1ccc(C(=C2C3CC4CC(C3)CC2C4)c2ccc(O)cc2)cc1 [Example 2, (S)-tert-Butyl (1-((4-(4-(adamantan-2-ylidene(4-hydroxyphenyl)methyl)-phenoxy)butyl)amino)-4-methyl-1-oxopentan-2-yl)carbamate] | 14 ± 1 | – | – | – | – | 36 | –
O=C(NCCCOc1ccc(C(=C2C3CC4CC(C3)CC2C4)c2ccc(O)cc2)cc1)C12CC3CC(CC(C3)C1)C2 [Example 5, N-(3-(4-(Adamantan-2-ylidene(4-hydroxyphenyl)methyl)phenoxy)propyl)-adamantane-1-carboxamide] | 26 ± 6 | – | – | – | – | 9 | –
O=C(NCCCCOc1ccc(C(=C2CCCCC2)c2ccc(O)cc2)cc1)C12CC3CC(CC(C3)C1)C2 [Example 26, N-(4-(4-(Cyclohexylidene(4-hydroxyphenyl)methyl)phenoxy)-butyl)adamantane-1-carboxamide] | – | 69 | 52 | -32 | 65 | – | –
O=C(NCCCCOc1ccc(Oc2c(-c3ccc(O)cc3)sc3cc(O)ccc23)cc1)C1CCC1 [Example 28, N-(4-(4-((6-Hydroxy-2-(4-hydroxyphenyl)benzo[b]thiophen-3-yl)oxy)phenoxy)butyl)cyclobutanecarboxamide] | – | 43 | 13 | -64 | 60 | – | –
O=C(NCCCCOc1ccc(Oc2c(-c3ccc(O)cc3)sc3cc(O)ccc23)cc1)C1CC(F)(F)C1 [Example 29, 3,3-Difluoro-N-(4-(4-((6-hydroxy-2-(4-hydroxyphenyl)benzo[b]thiophen-3-yl)oxy)phenoxy)butyl)cyclobutanecarboxamide] | – | 90 | 39 | 1 | 73 | – | –

Further lines, with some results ahead:

RBA (estradiol = 100) [1] | inhibition at 1 µM [3] [%] | inhibition at 1 µM [4] [%] | inhibition at 1 µM [5] [%] | inhibition at 1 µM [6] [%] | Compound | IC50 [2] [nM] | other results
14 ± 4 | – | – | – | – | CC(C)(C)OC(=O)N[C@@H](Cc1ccccc1)C(=O)NCCCCOc1ccc(C(=C2C3CC4CC(C3)CC2C4)c2ccc(O)cc2)cc1 [Example 3, (S)-tert-Butyl(1-((4-(4-(adamantan-2-ylidene(4-hydroxyphenyl)methyl)-phenoxy)butyl)amino)-1-oxo-3-phenylpropan-2-yl)carbamate] | 7 | –
21 ± 6 | – | – | – | – | O=C(NCCOc1ccc(C(=C2C3CC4CC(C3)CC2C4)c2ccc(O)cc2)cc1)C12CC3CC(CC(C3)C1)C2 [Example 4, N-(2-(4-(Adamantan-2-ylidene(4-hydroxyphenyl)methyl)phenoxy)ethyl)-adamantane-1-carboxamide] | 17 | –
– | 94 | 96 | 95 | 95 | O=C(NCCCCOc1ccc(Oc2c(-c3ccc(O)cc3)sc3cc(O)ccc23)cc1)[C@H]1CC[C@H](C(F)(F)F)CC1 [Example 17, (trans)-N-(4-(4-((6-Hydroxy-2-(4-hydroxyphenyl)benzo[b]thiophen-3-yl)oxy)phenoxy)butyl)-4-(trifluoromethyl)cyclohexanecarboxamide] | – | IC90 ([3]; luciferase assay, Table 4): 124 nM; IC90 ([4]; luciferase assay, Table 4): 19 nM; IC90 ([5]; luciferase assay, Table 4): 464 nM; IC90 ([6]; luciferase assay, Table 4): 175 nM; IC90 [7]: 22.1 nM; IC90 [8]: 304 nM; IC90 [9]: 315 nM
